Where two headings read alike, the source gives them in different places.
Key:
[1] = tested on: Sprague-Dawley rat hepatocytes; test: Metabolic stability in Sprague-Dawley rat hepatocytes; type: in vitro ADME; conditions: 0.1 uM
[2] = tested on: human plasma proteins; test: Plasma protein binding by equilibrium dialysis, human plasma; type: in vitro ADME; conditions: human plasma, 5 μM, fraction unbound
Summary of the method: (§1)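 Two-hour dialysis at 37 °C separated plasma containing 5 μM test compound (0.5% DMSO) from plasma-free buffer; concentrations in both compartments were then determined by LC-MS/MS.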

[3] = tested on: human liver microsomal proteins; test: Microsomal protein binding by equilibrium dialysis; type: in vitro ADME; conditions: human liver microsomes, 3 μM, fraction unbound
Summary of the method: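 Compound at 3 μM final in buffer with or without human liver microsomes, dialysed to equilibrium at 37 °C. Both sides quantified by LC-MS/MS to derive fraction unbound (Fu).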

[4] = tested on: PBMCs; test: Toxicity in PBMCs cultured without virus (XTT)
Experimental: Fresh human peripheral blood mononuclear cells (PBMCs) obtained from a commercial source were purified following centrifugation using a Ficoll-Hypaque density gradient. Viable cells were induced to proliferate in the presence of PHA-P and recombinant human IL-2 for 72 hours. […] Cell supernatant containing HIV-1 viral was incubated for 90 minutes at 37° C. with a reaction mixture containing EGTA, Triton X-100, Tris (pH 7.4), DTT, MgCl2, poly rA, oligo dT, and tritiated thymidine triphosphate (TTP). Incorporation of TTP into DNA was monitored by spotting the reaction mixture onto a DEAE filter mat, followed by washes with 5% phosphate buffer, distilled water, and 70% ethanol, and subsequent drying of the mat. […] TI was calculated as TC50/EC50.

[5] = tested on: CEM-SS cells; test: CEM-SS cytotoxicity (XTT); conditions: 7 days
Experimental: One day prior to assay initiation, cells were split 1:2 to assure exponential growth at the time of the assay. Cells were counted using a hemocytometer, and viability measured by Trypan Blue dye exclusion. […] CEM-SS cells were resuspended at 5×10^4 cells/mL in medium, and 100 μL of the cell suspension was aliquoted to individual wells of a 96-well microtiter plate containing 100 μL 2× concentration test compound. Plates were incubated for 7 days at 37° C., 5% CO2 until cytotoxicity evaluation.
Test compound-induced cytotoxicity was evaluated by monitoring the reduction of the tetrazolium dye XTT to a soluble formazan product in microtiter plates containing compound-treated cells in the absence of HIV-1 virus. XTT solution was prepared at 0.15 mg/mL in phosphate buffered saline. Phenazine methosulfate (PMS) solution was prepared at 0.15 mg/mL in phosphate buffered saline. A XTT/PMS stock solution was prepared immediately before use by combining 40 uL of PMS per mL of XTT solution. Fifty microliters of the XTT/PMS stock was added to each well of the microtiter plate, the plate was incubated for four hours at 37° C., and the amount of soluble formazan product was measured as the absorbance at 450 nm. Cell viability is directly proportional to the amount of soluble formazan product formed.

[6] = tested on: human hepatocytes; test: Metabolic stability in cryopreserved human hepatocytes; conditions: human hepatocytes
Summary of the method: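 Test compounds at 0.1 μM or 3 μM incubated with cryopreserved human hepatocytes at 0.5×10^6 viable cells/mL. Sampling up to four hours (0.1 μM) or one or two hours (3 μM), methanol quench, then remaining parent measured by cassette LC-MS/MS.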

[7] = molecular target: hERG (Homo sapiens (Human), UniProt Q12809); test: hERG current (IKr) in HEK-293 cells, whole-cell patch clamp; type: cell-based; conditions: for IC50: hERG current in HEK-293 cells, whole-cell patch clamp, read-out: IC50 (Block of hERG at 0.1 Hz); for IC50 / inhibition at 10 µM / inhibition at 30 µM / inhibition at 100 µM: 0.1 Hz; for inhibition at 10 µM / inhibition at 30 µM / inhibition at 100 µM: human, HEK-293 cells stably expressing hERG, read-out: Mean % inhibition ± SEM (Block of hERG at 0.1 Hz); for inhibition at 10 µM / inhibition at 30 µM / inhibition at 100 µM / Mean % inhibition ± SEM (Block of hERG at 0.1 Hz): HEK-293 cells
hERG, sequence (Q12809 whole entry): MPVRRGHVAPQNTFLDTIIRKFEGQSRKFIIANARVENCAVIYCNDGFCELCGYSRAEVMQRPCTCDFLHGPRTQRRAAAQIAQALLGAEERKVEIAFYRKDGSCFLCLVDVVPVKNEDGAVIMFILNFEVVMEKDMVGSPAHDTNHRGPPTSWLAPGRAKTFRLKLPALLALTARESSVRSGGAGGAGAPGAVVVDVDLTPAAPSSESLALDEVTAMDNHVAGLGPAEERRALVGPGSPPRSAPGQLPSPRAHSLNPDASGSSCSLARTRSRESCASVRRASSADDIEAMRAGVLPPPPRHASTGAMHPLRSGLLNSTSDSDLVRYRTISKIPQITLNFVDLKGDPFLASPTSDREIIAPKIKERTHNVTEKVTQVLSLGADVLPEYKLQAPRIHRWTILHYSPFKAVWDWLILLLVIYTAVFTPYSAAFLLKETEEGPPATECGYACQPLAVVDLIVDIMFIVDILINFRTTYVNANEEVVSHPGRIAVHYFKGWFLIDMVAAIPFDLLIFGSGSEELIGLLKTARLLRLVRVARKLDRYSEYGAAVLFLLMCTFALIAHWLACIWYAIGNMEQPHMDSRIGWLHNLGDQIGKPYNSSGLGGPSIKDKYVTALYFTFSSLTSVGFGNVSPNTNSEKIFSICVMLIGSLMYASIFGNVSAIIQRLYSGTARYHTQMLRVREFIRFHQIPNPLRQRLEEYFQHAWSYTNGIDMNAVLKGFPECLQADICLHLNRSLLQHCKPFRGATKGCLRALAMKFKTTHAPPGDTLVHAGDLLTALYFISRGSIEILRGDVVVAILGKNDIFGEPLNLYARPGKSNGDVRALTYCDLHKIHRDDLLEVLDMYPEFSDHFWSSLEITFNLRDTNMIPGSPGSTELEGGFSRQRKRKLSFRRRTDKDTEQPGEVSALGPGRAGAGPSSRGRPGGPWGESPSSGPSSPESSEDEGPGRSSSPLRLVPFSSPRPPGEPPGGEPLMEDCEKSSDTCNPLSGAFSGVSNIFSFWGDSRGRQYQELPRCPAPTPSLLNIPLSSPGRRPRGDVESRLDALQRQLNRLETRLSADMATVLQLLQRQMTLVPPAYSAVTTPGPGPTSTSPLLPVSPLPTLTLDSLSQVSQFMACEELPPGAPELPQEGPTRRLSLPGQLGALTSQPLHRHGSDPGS
Experimental: Currents were measured using the whole-cell variant of the patch clamp method. Glass pipettes were produced with tip openings of […] for K current recordings. Pipette tip resistance was approximately 1.0 to 2.0 MΩ when filled with K internal solutions (130 mM KCl, 5 mM MgCl2, 10 mM HEPES, 5 mM EGTA, 5 mM ATP-Na2, pH7.2). An Axopatch 1-B amplifier (Axon Instruments, Foster City, Calif.) was used for whole-cell voltage clamping. Voltage clamp pulses were controlled by pClamp software (ver 9.2, Axon Instruments).
After rupture of the cell membrane, current kinetics and amplitudes were allowed to stabilize as the cell was dialyzed with internal solution and paced at 0.1 Hz (−75 mV; 500 msec, +10 mV; 500 msec, −40 mV; typically 2-4 minutes). Currents were considered stable if the currents elicited by a series of voltage pulses given at 0.1 Hz were superimposed. Peak hERG current was measured as the maximum outward deflection of the tail current elicited upon return to −40 mV.
Data are presented in Table 19 as the percent reduction of current amplitude. This was measured as current reduction after a steady-state effect had been reached in the presence of drug relative to current amplitude before drug was introduced (control). Each cell served as its own control.

[8] = Plasma protein binding by equilibrium dialysis, human plasma; type: in vitro ADME; conditions: human plasma, 5 μM, fraction unbound; read-out: Plasma Protein Binding Fu ± SD
Summary of the method: as §1

[9] = tested on: mouse plasma proteins; test: Plasma protein binding by equilibrium dialysis, mouse plasma; type: in vitro ADME; conditions: fraction unbound
Experimental: In assays to estimate binding of test compounds to plasma proteins, test compound solutions (5 μM) are prepared in buffer and species-specific plasma (final DMSO concentration 0.5%). The plasma-containing solution is added to one side of the membrane of an equilibrium dialysis system, and the plasma-free is added to the other side. Dialysis was allowed to reach equilibrium by incubation for two hours at 37° C. The concentration of compound on both sides of the membrane was measured using LC-MS/MS.

[10] = seven days, absence of virus, XTT

Row | Compound | Plasma Protein Binding Fu ± SD [2] | Microsomal Protein Binding Fu ± SD [3] | XTT (CEM-SS) TC50 [5] [µM] | IC50 [7] [µM] | CLint ± SEM ([6]; 0.1 uM, up to four hours) [μL/min/10^6 cells] | t1/2 ([6]; 0.1 uM, up to four hours) [h] | Mouse Plasma Protein Binding Fu ± SD [9] | also measured
1 | COCCOCCOCCOCCOCCOc1ccc(C[C@H](NC(=O)O[C@H]2CO[C@H]3OCC[C@H]32)C(O)CN(CC(C)C)S(=O)(=O)c2ccc(N)cc2)cc1 (stereo partly drawn) [mPEG5-O-Darunavir] | 0.448 ± 0.0195 | 0.804 ± 0.253 | >400 |  |  |  |  | CLint ± SEM [1]: 37.0 ± 0.00425 μL/min/10^6 cells; t1/2 [1]: 0.625 h; PBMC TC50 ± SD [4, 10]: >200 µM
2 | COCCOCCOCCOCCOCCOCCOCCNc1ccc(S(=O)(=O)N(CC(C)C)CC(O)[C@H](Cc2ccccc2)NC(=O)O[C@H]2CO[C@H]3OCC[C@H]32)cc1 (stereo partly drawn) [mPEG7-N-Darunavir] | 0.364 ± 0.0298 | 0.973 ± 0.0139 |  |  |  |  |  | CLint ± SEM ([6]; 3 uM, incubated up to one hour): 5.13 ± 0.611 μL/min/10^6 cells; PBMC TC50 ± SD [4, 10]: >200 µM
3 | COCCOCCOCCOC(=O)NC(C(=O)NC(Cc1ccccc1)C(O)CN(Cc1ccc(-c2ccccn2)cc1)NC(=O)C(NC(=O)OC)C(C)(C)C)C(C)(C)C (stereo not drawn) [mono-mPEG3-Atazanavir, {1-[N′-[2-Hydroxy-3-(2-{2-[2-(2-methoxy-ethoxy)-ethoxy]-ethoxycarbonylamino}-3,3-dimethyl-butyrylamino)-4-phenyl-butyl]-N′-(4-pyridin-2-yl-benzyl)-hydrazinocarbonyl]-2,2-dimethyl-propyl}-carbamic Acid Methyl Ester] |  |  | >400 | 88.3 |  |  |  | inhibition at 10 µM ([7]; 10 μM): 5.4 ± 0.6%; inhibition at 30 µM ([7]; 30 μM): 23.7 ± 3.7%; inhibition at 100 µM ([7]; 100 μM): 53.1 ± 2.6%; fraction unbound at 2 h, 5 μM [8]: 0.217 ± 0.000495
4 | COC(=O)N[C@H](C(=O)N[C@@H](Cc1ccccc1)[C@@H](O)CN(Cc1ccc(-c2ccccn2)cc1)NC(=O)[C@@H](NC(=O)OC)C(C)(C)C)C(C)(C)C [Atazanavir, reference compound] |  |  | 302.1 | 63.9 |  |  |  | inhibition at 10 µM ([7]; 10 μM): 15.6 ± 1.9%; inhibition at 30 µM ([7]; 30 μM): 32.5 ± 3.7%; inhibition at 100 µM ([7]; 100 μM): 60.5 ± 2.5%; fraction unbound at 2 h, 5 μM [8]: 0.106 ± 5.25e-05
5 | COCCOC(=O)NC(C(=O)NC(Cc1ccccc1)C(O)CN(Cc1ccc(-c2ccccn2)cc1)NC(=O)C(NC(=O)OC)C(C)(C)C)C(C)(C)C (stereo not drawn) [mono-mPEG1-Atazanavir] |  |  |  |  | 15.3 ± 0.00173 | 1.51 | 0.0666 ± 0.00662 | CLint ± SEM [1]: 82.5 ± 0.0100 μL/min/10^6 cells; t1/2 [1]: 0.28 h; PBMC TC50 ± SD [4]: 135.9 µM
6 | COCCOCCOCCOCCOCCOCCOC(=O)NC(C(=O)NC(Cc1ccccc1)C(O)CN(Cc1ccc(-c2ccccn2)cc1)NC(=O)C(NC(=O)OC)C(C)(C)C)C(C)(C)C (stereo not drawn) [mono-mPEG6-Atazanavir] |  |  |  | > 100 | 0.778 ± 0.000211 | 29.68 | 0.159 ± 0.0167 | Mean % inhibition ± SEM (Block of hERG at 0.1 Hz) ([7]; 10 μM): 4.4 ± 0.4%; Mean % inhibition ± SEM (Block of hERG at 0.1 Hz) ([7]; 30 μM): 12.7 ± 1.3%; Mean % inhibition ± SEM (Block of hERG at 0.1 Hz) ([7]; 100 μM): 26.0 ± 1.0%
7 | COCCOCCOCCOCCOCCOCCOCCOC(=O)NC(C(=O)NC(Cc1ccccc1)C(O)CN(Cc1ccc(-c2ccccn2)cc1)NC(=O)C(NC(=O)OC)C(C)(C)C)C(C)(C)C (stereo not drawn) [mono-mPEG7-Atazanavir] |  |  |  |  |  |  | 0.174 ± 0.00791 | PBMC TC50 ± SD [4]: 187.2 µM
8 | COCCOCCOCCOCCOCCOC(=O)NC(C(=O)NC(Cc1ccccc1)C(O)CN(Cc1ccc(-c2ccccn2)cc1)NC(=O)C(NC(=O)OC)C(C)(C)C)C(C)(C)C (stereo not drawn) [mono-mPEG5-Atazanavir] |  |  |  | > 100 | 3.98 ± 0.000356 | 5.8 | 0.217 ± 0.0103 | Mean % inhibition ± SEM (Block of hERG at 0.1 Hz) ([7]; 10 μM): 11.2 ± 1.4%; Mean % inhibition ± SEM (Block of hERG at 0.1 Hz) ([7]; 30 μM): 26.3 ± 2.9%; Mean % inhibition ± SEM (Block of hERG at 0.1 Hz) ([7]; 100 μM): 43.8 ± 3.9%
9 | CC(C)CN(C[C@@H](O)[C@H](Cc1ccccc1)NC(=O)O[C@H]1CO[C@H]2OCC[C@H]21)S(=O)(=O)c1ccc(N)cc1 [Darunavir, reference compound] |  |  | 338.6 |  |  |  |  | fraction unbound at 2 h, 5 μM [8]: 0.144 ± 0.0051
10 | COCCOCCOCCOc1ccc(C[C@H](NC(=O)O[C@H]2CO[C@H]3OCC[C@H]32)C(O)CN(CC(C)C)S(=O)(=O)c2ccc(N)cc2)cc1 (stereo partly drawn) [mPEG3-O-Darunavir] | 0.274 ± 0.0194 | 0.936 ± 0.0109 | >400 |  |  |  |  | CLint ± SEM [1]: 28.4 ± 0.00359 μL/min/10^6 cells; t1/2 [1]: 0.813 h; PBMC TC50 ± SD [4, 10]: >200 µM
11 | COCCOCCOCCOCCOCCNc1ccc(S(=O)(=O)N(CC(C)C)CC(O)[C@H](Cc2ccccc2)NC(=O)O[C@H]2CO[C@H]3OCC[C@H]32)cc1 (stereo partly drawn) [mPEG5-N-Darunavir] | 0.338 ± 0.0368 | 0.864 ± 0.011 |  |  | 3.94 ± 0.386 | 5.87 |  | CLint ± SEM ([6]; 3 uM, incubated up to one hour): 11.9 ± 1.40 μL/min/10^6 cells
